Square brackets hold non-standard residues; d marks the D form. Peptide text beside a SMILES is read from it. * marks the point of attachment. Propanoyl(3-Pip(4-O-2-BnPh)) = O=C(CCN1CCC(Oc2ccccc2Cc2ccccc2)CC1)*
Legend:
Nluc-H1R [1] = target: T1, Nluc-H1R (Homo sapiens, UniProt P35367); assay: NanoBRET competition binding assay (displacement of 1) on Nluc-H1R expressing HEK293T cells; conditions: for Ki / pKi: displacement of 1 (25 nM, KD = 8 nM), whole HEK293T cells, Cheng–Prusoff; for pKi: mean ± SEM, three experiments; for pKi/pKD (H1R): supplementary CSV, unlabeled congeners (pKi)
T1 sequence (P35367 whole entry): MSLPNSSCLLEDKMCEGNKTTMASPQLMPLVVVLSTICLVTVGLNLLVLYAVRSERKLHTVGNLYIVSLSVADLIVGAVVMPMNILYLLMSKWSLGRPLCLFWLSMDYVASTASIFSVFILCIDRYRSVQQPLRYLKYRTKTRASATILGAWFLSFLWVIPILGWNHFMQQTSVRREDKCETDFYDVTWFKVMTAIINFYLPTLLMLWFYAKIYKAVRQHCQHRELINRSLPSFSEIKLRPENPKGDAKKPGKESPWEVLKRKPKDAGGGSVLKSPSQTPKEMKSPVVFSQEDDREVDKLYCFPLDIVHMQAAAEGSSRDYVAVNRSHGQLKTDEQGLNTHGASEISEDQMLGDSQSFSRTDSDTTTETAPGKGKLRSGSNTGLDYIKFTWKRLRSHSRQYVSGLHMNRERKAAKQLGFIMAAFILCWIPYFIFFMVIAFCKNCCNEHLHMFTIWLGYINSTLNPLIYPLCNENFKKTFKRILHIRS

Nluc-H1R [2] = target: T1, Nluc-H1R; assay: NanoBRET saturation binding assay on Nluc-H1R expressing HEK293T cells; set-up: expressed in transfected cells; conditions: saturation binding curves, whole HEK293T cells; for pKD: non-specific with 10 μM mepyramine, mean ± SEM
From the text: Total and non-specific saturation binding curves from NanoBRET saturation binding assay were fitted simultaneously using eq 1: [drawing 4] 1 where Bmax is the maximal specific binding, [B] is the concentration of fluorescent ligand in nM, KD is the equilibrium dissociation constant in nM, M is the slope of the non-specific component, and C is the intercept with the Y axis.

Molecule	Ki (Nluc-H1R [1])	pKi (Nluc-H1R [1])	Kd (Nluc-H1R [2])	pKD (Nluc-H1R [2])	pKi/pKD (H1R) (Nluc-H1R [1])
CC(C)[C@H](NC(=O)CCN1CCC(Oc2ccccc2Cc2ccccc2)CC1)C(=O)N[C@@H](CCCCN)C(=O)N[C@@H](C)C(=O)N[C@H](Cc1ccccc1)C(N)=O [Compound 9h, (S)-6-Amino-N-((S)-1-(((R)-1-amino-1-oxo-3-phenylpropan-2-yl)amino)-1-oxopropan-2-yl)-2-((S)-2-(3-(4-(2-benzylphenoxy)piperidin-1-yl)propanamido)-3-methylbutanamido)hexanamide] ({Propanoyl(3-Pip(4-O-2-BnPh))}-VKA[dF]-NH2)	2400 nM	5.62 ± 0.06	–	–	–
CC(C)[C@H](NC(=O)CCN1CCC(Oc2ccccc2Cc2ccccc2)CC1)C(=O)N[C@@H](CC(=O)O)C(=O)N[C@@H](C)C(=O)N[C@H](Cc1ccccc1)C(N)=O [Compound 9i, (S)-4-(((S)-1-(((R)-1-Amino-1-oxo-3-phenylpropan-2-yl)amino)-1-oxopropan-2-yl)amino)-3-((S)-2-(3-(4-(2-benzylphenoxy)piperidin-1-yl)propanamido)-3-methylbutanamido)-4-oxobutanoic Acid] ({Propanoyl(3-Pip(4-O-2-BnPh))}-VDA[dF]-NH2)	550 nM	6.26 ± 0.14	–	–	–
CC(C)[C@H](NC(=O)CCN1CCC(Oc2ccccc2Cc2ccccc2)CC1)C(=O)N[C@@H](CO)C(=O)NCC(=O)N[C@H](Cc1ccccc1)C(N)=O [Compound 10a, (S)-N-((S)-1-((2-(((R)-1-Amino-1-oxo-3-phenylpropan-2-yl)amino)-2-oxoethyl)amino)-3-hydroxy-1-oxopropan-2-yl)-2-(3-(4-(2-benzylphenoxy)piperidin-1-yl)propanamido)-3-methylbutanamide] ({Propanoyl(3-Pip(4-O-2-BnPh))}-VSG[dF]-NH2)	158 nM	6.80 ± 0.05	–	–	–
CC(C)[C@H](NC(=O)CCN1CCC(Oc2ccccc2Cc2ccccc2)CC1)C(=O)N[C@@H](CO)C(=O)N[C@H](C(=O)N[C@H](Cc1ccccc1)C(N)=O)C(C)C [Compound 10b, (S)-N-((R)-1-Amino-1-oxo-3-phenylpropan-2-yl)-2-((S)-2-((S)-2-(3-(4-(2-benzylphenoxy)piperidin-1-yl)propanamido)-3-methylbutanamido)-3-hydroxypropanamido)-3-methylbutanamide] ({Propanoyl(3-Pip(4-O-2-BnPh))}-VSV[dF]-NH2)	309 nM	6.51 ± 0.07	–	–	–
CC(C)[C@H](NC(=O)CCN1CCC(Oc2ccccc2Cc2ccccc2)CC1)C(=O)N[C@@H](CO)C(=O)N[C@@H](Cc1ccccc1)C(=O)N[C@H](Cc1ccccc1)C(N)=O [Compound 10c, (S)-N-((S)-1-(((S)-1-(((R)-1-Amino-1-oxo-3-phenylpropan-2-yl)amino)-1-oxo-3-phenylpropan-2-yl)amino)-3-hydroxy-1-oxopropan-2-yl)-2-(3-(4-(2-benzylphenoxy)piperidin-1-yl)propanamido)-3-methylbutanamide] ({Propanoyl(3-Pip(4-O-2-BnPh))}-VSF[dF]-NH2)	110 nM	6.96 ± 0.02	–	–	–
CC(C)[C@H](NC(=O)CCN1CCC(Oc2ccccc2Cc2ccccc2)CC1)C(=O)N[C@@H](CO)C(=O)N[C@@H](Cc1ccc(O)cc1)C(=O)N[C@H](Cc1ccccc1)C(N)=O [Compound 10d, (S)-N-((S)-1-(((S)-1-(((R)-1-Amino-1-oxo-3-phenylpropan-2-yl)amino)-3-(4-hydroxyphenyl)-1-oxopropan-2-yl)amino)-3-hydroxy-1-oxopropan-2-yl)-2-(3-(4-(2-benzylphenoxy)piperidin-1-yl)propanamido)-3-methylbutanamide] ({Propanoyl(3-Pip(4-O-2-BnPh))}-VSY[dF]-NH2)	95 nM	7.02 ± 0.08	–	–	–
CC(C)[C@H](NC(=O)CCN1CCC(Oc2ccccc2Cc2ccccc2)CC1)C(=O)N[C@@H](CO)C(=O)N[C@@H](CO)C(=O)N[C@H](Cc1ccccc1)C(N)=O [Compound 10e, (S)-N-((S)-1-(((S)-1-(((R)-1-Amino-1-oxo-3-phenylpropan-2-yl)amino)-3-hydroxy-1-oxopropan-2-yl)amino)-3-hydroxy-1-oxopropan-2-yl)-2-(3-(4-(2-benzylphenoxy)piperidin-1-yl)propanamido)-3-methylbutanamide] ({Propanoyl(3-Pip(4-O-2-BnPh))}-VSS[dF]-NH2)	339 nM	6.47 ± 0.03	–	–	–
CC(C)[C@H](NC(=O)CCN1CCC(Oc2ccccc2Cc2ccccc2)CC1)C(=O)N[C@@H](CO)C(=O)N[C@@H](CC(N)=O)C(=O)N[C@H](Cc1ccccc1)C(N)=O [Compound 10f, (S)-N1-((R)-1-Amino-1-oxo-3-phenylpropan-2-yl)-2-((S)-2-((S)-2-(3-(4-(2-benzylphenoxy)piperidin-1-yl)propanamido)-3-methylbutanamido)-3-hydroxypropanamido)succinamide] ({Propanoyl(3-Pip(4-O-2-BnPh))}-VSN[dF]-NH2)	95 nM	7.02 ± 0.08	–	–	–
CC(C)[C@H](NC(=O)CCN1CCC(Oc2ccccc2Cc2ccccc2)CC1)C(=O)N[C@@H](CO)C(=O)N[C@@H](Cc1cnc[nH]1)C(=O)N[C@H](Cc1ccccc1)C(N)=O [Compound 10g, (S)-N-((S)-1-(((S)-1-(((R)-1-Amino-1-oxo-3-phenylpropan-2-yl)amino)-3-(1H-imidazol-4-yl)-1-oxopropan-2-yl)amino)-3-hydroxy-1-oxopropan-2-yl)-2-(3-(4-(2-benzylphenoxy)piperidin-1-yl)propanamido)-3-methylbutanamide] ({Propanoyl(3-Pip(4-O-2-BnPh))}-VSH[dF]-NH2)	126 nM	6.90 ± 0.04	–	–	–
CC(C)[C@H](NC(=O)CCN1CCC(Oc2ccccc2Cc2ccccc2)CC1)C(=O)N[C@@H](CO)C(=O)N[C@@H](CCCCN)C(=O)N[C@H](Cc1ccccc1)C(N)=O [Compound 10h, (S)-6-Amino-N-((R)-1-amino-1-oxo-3-phenylpropan-2-yl)-2-((S)-2-((S)-2-(3-(4-(2-benzylphenoxy)piperidin-1-yl)propanamido)-3-methylbutanamido)-3-hydroxypropanamido)hexanamide] ({Propanoyl(3-Pip(4-O-2-BnPh))}-VSK[dF]-NH2)	186 nM	6.73 ± 0.05	–	–	–
CC(C)[C@H](NC(=O)CCN1CCC(Oc2ccccc2Cc2ccccc2)CC1)C(=O)N[C@@H](CO)C(=O)N[C@@H](CC(=O)O)C(=O)N[C@H](Cc1ccccc1)C(N)=O [Compound 10i, (S)-4-(((R)-1-Amino-1-oxo-3-phenylpropan-2-yl)amino)-3-((S)-2-((S)-2-(3-(4-(2-benzylphenoxy)piperidin-1-yl)propanamido)-3-methylbutanamido)-3-hydroxypropanamido)-4-oxobutanoic Acid] ({Propanoyl(3-Pip(4-O-2-BnPh))}-VSD[dF]-NH2)	174 nM	6.76 ± 0.04	–	–	–
CC(C)[C@H](NC(=O)CCN1CCC(Oc2ccccc2Cc2ccccc2)CC1)C(=O)N[C@@H](CO)C(=O)N[C@@H](CC(N)=O)C(=O)N[C@@H](Cn1cc(COc2ccc(/C=C/C3=[N+]4C(=Cc5ccc(-c6cccs6)n5[B-]4(F)F)C=C3)cc2)nn1)C(N)=O [Compound 22a, (S)-N1-((S)-1-Amino-3-(4-((4-((E)-2-(5,5-difluoro-7-(thiophen-2-yl)-5H-5λ^4,6λ^4-dipyrrolo[1,2-c:2’,1’-f][1,3,2]diazaborinin-3-yl)vinyl)phenoxy)methyl)-1H-1,2,3-triazol-1-yl)-1-oxopropan-2-yl)-2-((S)-2-((S)-2-(3-(4-(2-benzylphenoxy)piperidin-1-yl)propanamido)-3-methylbutanamido)-3-hydroxypropanamido)succinamide]	–	–	28 nM	7.55 ± 0.07	–
C[C@H](NC(=O)CCN1CCC(Oc2ccccc2Cc2ccccc2)CC1)C(=O)N[C@@H](C)C(=O)N[C@@H](C)C(=O)N[C@@H](Cn1cc(COc2ccc(/C=C/C3=[N+]4C(=Cc5ccc(-c6cccs6)n5[B-]4(F)F)C=C3)cc2)nn1)C(N)=O [Compound 22b, (S)-N-((S)-1-Amino-3-(4-((4-((E)-2-(5,5-difluoro-7-(thiophen-2-yl)-5H-5λ^4,6λ^4-dipyrrolo[1,2-c:2’,1’-f][1,3,2]diazaborinin-3-yl)vinyl)phenoxy)methyl)-1H-1,2,3-triazol-1-yl)-1-oxopropan-2-yl)-2-((S)-2-((S)-2-(3-(4-(2-benzylphenoxy)piperidin-1-yl)propanamido)propanamido)propanamido)propenamide]	–	–	20 nM	7.70 ± 0.05	–
(S)-N1-((S)-1-Amino-1-oxo-3-phenylpropan-2-yl)-2-((S)-2-((S)-2-(3-(4-(2-benzylphenoxy)piperidin-1-yl)propanamido)-3-methylbutanamido)-3-hydroxypropanamido)succinimide [Compound 11b]	437 nM	6.36 ± 0.22	–	–	7.05
(S)-N-((S)-1-(((S)-1-(((S)-1-Amino-1-oxo-3-phenylpropan-2-yl)amino)-3-(4-hydroxyphenyl)-1-oxopropan-2-yl)amino)-3-hydroxy-1-oxopropan-2-yl)-2-(3-(4-(2-benzylphenoxy)piperidin-1-yl)propanamido)-3-methylbutanamide [Compound 11a]	89 nM	–	–	–	6.36

From article PMC9234962, “Optimization of Peptide Linker-Based Fluorescent Ligands for the Histamine H1 Receptor” (Journal of Medicinal Chemistry, 2022)
